Reference: PubChem BioAssay AID248 (DTP/NCI, 2004)
Several values for one entry are separate records, joined by “and”; a condition that tells them apart may be missing. Equal values may be shown once. Inconclusive results and toxic doses are left out. Rule as the data show it: active = T/C of 150% or more; inactive = T/C below 125%.

Test system: L1210 leukemia ip in BDF1 mice, survival T/C
Assay: NCI In Vivo Anticancer Drug Screen. Data for tumor model L1210 Leukemia (intraperitoneal) in B6D2F1 (BDF1) mice
Conditions: endpoint: mean survival time, higher = longer survival
How it was run: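 Read-out is survival time, reported as the treated-group measurement over the vehicle-control measurement.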

[1] = dose: 100.0 mg/kg/injection, schedule: Q01DX009 (ip), vehicle: saline with Tween-80
[2] = dose: 200.0 mg/kg/injection, schedule: Q01DX009 (ip), vehicle: saline with Tween-80
[3] = dose: 400.0 mg/kg/injection, schedule: Q01DX009 (ip), vehicle: saline with Tween-80
[4] = dose: 100.0 mg/kg/injection, schedule: Q04DX002 (ip), vehicle: Klucel (hydroxypropylcellulose) (HPC)
[5] = dose: 200.0 mg/kg/injection, schedule: Q04DX002 (ip), vehicle: Klucel (hydroxypropylcellulose) (HPC)
[6] = dose: 400.0 mg/kg/injection, schedule: Q04DX002 (ip), vehicle: Klucel (hydroxypropylcellulose) (HPC)
[7] = dose: 50.0 mg/kg/injection, schedule: Q01DX009 (ip), vehicle: saline
[8] = dose: 50.0 mg/kg/injection, schedule: Q04DX003 (ip), vehicle: saline
[9] = dose: 100.0 mg/kg/injection, schedule: Q01DX009 (ip), vehicle: saline
[10] = dose: 100.0 mg/kg/injection, schedule: Q04DX003 (ip), vehicle: saline
[11] = dose: 200.0 mg/kg/injection, schedule: Q01DX009 (ip), vehicle: saline
[12] = dose: 200.0 mg/kg/injection, schedule: Q04DX003 (ip), vehicle: saline
[13] = dose: 25.0 mg/kg/injection, schedule: Q04DX003 (ip), vehicle: Klucel (hydroxypropylcellulose) (HPC)
[14] = dose: 50.0 mg/kg/injection, schedule: Q04DX003 (ip), vehicle: Klucel (hydroxypropylcellulose) (HPC)
[15] = dose: 50.0 mg/kg/injection, schedule: Q01DX001 (ip), vehicle: carboxymethylcellulose (CMC)
[16] = dose: 100.0 mg/kg/injection, schedule: Q01DX001 (ip), vehicle: carboxymethylcellulose (CMC)
[17] = dose: 200.0 mg/kg/injection, schedule: Q01DX001 (ip), vehicle: carboxymethylcellulose (CMC)
[18] = dose: 400.0 mg/kg/injection, schedule: Q01DX001 (ip), vehicle: carboxymethylcellulose (CMC)
[19] = dose: 100.0 mg/kg/injection, schedule: Q04DX003 (ip), vehicle: saline with Tween-80
[20] = dose: 200.0 mg/kg/injection, schedule: Q04DX003 (ip), vehicle: saline with Tween-80
[21] = dose: 400.0 mg/kg/injection, schedule: Q04DX003 (ip), vehicle: saline with Tween-80

Measured: T/C

CCCOc1ccc(/C=N\N=C\c2ccc(OCCC)cc2)cc1
inactive: [1] 94 % of control | [2] 94 % of control | [3] 91 % of control

COc1ccc(C(=O)Nc2c(C)cccc2C)cc1
inactive: dose: 100.0 mg/kg/injection, schedule: Q01DX009 (ip), vehicle: carboxymethylcellulose (CMC) 94 % of control and 90 % of control | [4] 112 % of control | dose: 100.0 mg/kg/injection, schedule: Q04DX002 (ip), vehicle: carboxymethylcellulose (CMC) 97 % of control and 108 % of control | dose: 100.0 mg/kg/injection, schedule: Q04DX003 (ip), vehicle: carboxymethylcellulose (CMC) 104 % of control | dose: 200.0 mg/kg/injection, schedule: Q01DX009 (ip), vehicle: carboxymethylcellulose (CMC) 94 % of control and 92 % of control | [5] 108 % of control | dose: 200.0 mg/kg/injection, schedule: Q04DX002 (ip), vehicle: carboxymethylcellulose (CMC) 100 % of control and 101 % of control | dose: 200.0 mg/kg/injection, schedule: Q04DX003 (ip), vehicle: carboxymethylcellulose (CMC) 106 % of control | dose: 400.0 mg/kg/injection, schedule: Q01DX009 (ip), vehicle: carboxymethylcellulose (CMC) 94 % of control and 97 % of control | [6] 108 % of control | dose: 400.0 mg/kg/injection, schedule: Q04DX002 (ip), vehicle: carboxymethylcellulose (CMC) 103 % of control | dose: 400.0 mg/kg/injection, schedule: Q04DX003 (ip), vehicle: carboxymethylcellulose (CMC) 106 % of control

Nc1nc2nc[nH]c2c(N)c1Br (tested in a mixture with another compound)
inactive: [7] 95 % of control | [8] 96 % of control | dose: 100.0 mg/kg/injection, schedule: Q01DX001 (ip), vehicle: saline 100 % of control | [9] 92 % of control | [10] 94 % of control | dose: 200.0 mg/kg/injection, schedule: Q01DX001 (ip), vehicle: saline 97 % of control | [11] 114 % of control | [12] 105 % of control

CCNCCCCCCNCC
inactive: dose: 12.5 mg/kg/injection, schedule: Q01DX009 (ip), vehicle: saline 97 % of control | dose: 25.0 mg/kg/injection, schedule: Q01DX009 (ip), vehicle: saline 108 % of control | dose: 25.0 mg/kg/injection, schedule: Q04DX003 (ip), vehicle: saline 98 % of control | [7] 93 % of control | [8] 107 % of control | [10] 87 % of control

C[N+]12CCCc3cc(CO)cc(c31)CCC2
inactive: dose: 12.5 mg/kg/injection, schedule: Q01DX009 (ip), vehicle: Klucel (hydroxypropylcellulose) (HPC) 101 % of control | dose: 12.5 mg/kg/injection, schedule: Q04DX003 (ip), vehicle: Klucel (hydroxypropylcellulose) (HPC) 97 % of control | dose: 25.0 mg/kg/injection, schedule: Q01DX009 (ip), vehicle: Klucel (hydroxypropylcellulose) (HPC) 105 % of control | [13] 92 % of control | [14] 97 % of control

Cc1cc(C)c(NC(=O)Nc2ccc(Cl)c(Cl)c2)cc1C
inactive: [4] 93 % of control | [5] 96 % of control | [6] 93 % of control

CC1CC(C)(C)S(=O)(=O)O1 (stereo not drawn)
inactive: [15] 107 % of control | [16] 98 % of control | [17] 109 % of control | [18] 102 % of control

CC[As](=O)(O)CC(C)C
inactive: [9] 96 % of control

Cc1c2ccc3ccccc3c2c(C)[n+]2ccccc12
inactive: dose: 2.0 mg/kg/injection, schedule: Q01DX Z (ip), vehicle: carboxymethylcellulose (CMC) 122 % of control | dose: 4.0 mg/kg/injection, schedule: Q01DX Z (ip), vehicle: carboxymethylcellulose (CMC) 106 % of control | dose: 8.0 mg/kg/injection, schedule: Q01DX Z (ip), vehicle: carboxymethylcellulose (CMC) 93 % of control

C[C@]12CC[C@H](O)C[C@H]1CC[C@@H]1[C@@H]2CC[C@]2(C)[C@@H](C3=CC(=O)OC3)[C@@H](O)C[C@]12O
inactive: [15] 101 % of control | [16] 107 % of control | [17] 101 % of control | [18] 102 % of control

CCCCCCCCCCCCCC[n+]1ccc(C#N)cc1
inactive: dose: 7.5 mg/kg/injection, schedule: Q04DX003 (ip), vehicle: saline 101 % of control | dose: 15.0 mg/kg/injection, schedule: Q04DX003 (ip), vehicle: saline 95 % of control | dose: 30.0 mg/kg/injection, schedule: Q04DX003 (ip), vehicle: saline 96 % of control

O=C1CC2CCCCN2C2=C1CCCC2 (stereo not drawn)
inactive: dose: 25.0 mg/kg/injection, schedule: Q01DX009 (ip), vehicle: alcohol 101 % of control | dose: 50.0 mg/kg/injection, schedule: Q01DX009 (ip), vehicle: alcohol 98 % of control | dose: 100.0 mg/kg/injection, schedule: Q01DX009 (ip), vehicle: alcohol 93 % of control

O=C(NCCO)Nc1ccccc1F
inactive: [9] 95 % of control | [10] 95 % of control | [11] 101 % of control | [12] 95 % of control | dose: 400.0 mg/kg/injection, schedule: Q01DX009 (ip), vehicle: saline 106 % of control | dose: 400.0 mg/kg/injection, schedule: Q04DX003 (ip), vehicle: saline 93 % of control

COc1ccc(C)cc1NC(=O)Nc1cc(Cl)ccc1C
inactive: dose: 100.0 mg/kg/injection, schedule: Q01DX001 (ip), vehicle: saline with Tween-80 93 % of control | [1] 95 % of control and 112 % of control | dose: 100.0 mg/kg/injection, schedule: Q04DX002 (ip), vehicle: saline with Tween-80 102 % of control and 87 % of control | [19] 90 % of control | dose: 200.0 mg/kg/injection, schedule: Q01DX001 (ip), vehicle: saline with Tween-80 93 % of control | [2] 102 % of control and 88 % of control | dose: 200.0 mg/kg/injection, schedule: Q04DX002 (ip), vehicle: saline with Tween-80 87 % of control | [20] 101 % of control | [3] 93 % of control and 91 % of control | dose: 400.0 mg/kg/injection, schedule: Q04DX002 (ip), vehicle: saline with Tween-80 95 % of control and 87 % of control | [21] 94 % of control

CNC(=O)O/N=C/c1cccc(/C=N/OC(=O)NC)c1
inactive: [19] 97 % of control | [20] 97 % of control | [21] 103 % of control

COc1cc(C=C(C#N)C#N)cc(I)c1O
inactive: [13] 98 % of control | [14] 104 % of control

CSC1C(O)C(CO)OC1n1cnc2c(N)ncnc21 (stereo not drawn)
inactive: dose: 100.0 mg/kg/injection, schedule: Q01DX005 (ip), vehicle: saline 100 % of control | dose: 200.0 mg/kg/injection, schedule: Q01DX005 (ip), vehicle: saline 106 % of control

S=c1nc[nH]c2c1ncn2CCCc1ccccc1
inactive: [15] 106 % of control | [16] 98 % of control | [17] 98 % of control | [18] 95 % of control
